# Source: ChEMBL document CHEMBL1201862, “PubChem BioAssay data set” (2004)
#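 Following 48 hours of exposure in 96-well plates, responses at five concentrations were used to interpolate endpoints linearly. GI50: concentration for 50% inhibition of growth.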 Active and inactive are the calls of the source. Cut-off read from the data, not from the text of the source: active = GI50 up to about 1.1 µM and inactive = higher.
# Tests used:
# Assay in all cases: NCI tumour cell line growth inhibition, 48 h
# OVCAR-8 = system: OVCAR-8
# OVCAR-4 = system: OVCAR-4
# HOP-92 = system: HOP-92
# ACHN = system: ACHN
# M14 = system: M14
# NCI-H23 = system: NCI-H23
# SNB-19 = system: SNB-19
# SN12C = system: SN12C
# 786-0 = system: 786-0
# KM12 = system: KM12
# NCI-H226 = system: NCI-H226
# HCT-116 = system: HCT-116
# PC-3 = system: PC-3
# EKVX = system: EKVX
# K562 = system: K562
# IGROV-1 = system: IGROV-1
# BT-549 = system: BT-549
# HL-60 = system: HL-60
# HOP-62 = system: HOP-62
Structure (SMILES),GI50 (OVCAR-8),GI50 (OVCAR-4),GI50 (HOP-92),GI50 (ACHN),GI50 (M14),GI50 (NCI-H23),GI50 (SNB-19),GI50 (SN12C),GI50 (786-0),GI50 (KM12),GI50 (NCI-H226),GI50 (HCT-116),GI50 (PC-3),GI50 (EKVX),GI50 (K562),GI50 (IGROV-1),GI50 (BT-549),GI50 (HL-60),GI50 (HOP-62)
O=c1oc2ccccc2c(-c2ccc(O)cc2)c1Oc1ccc(Cl)cc1,25.8 µM (inactive),38.4 µM (inactive),19.8 µM (inactive),25.8 µM (inactive),17.1 µM (inactive),20.7 µM (inactive),22.4 µM (inactive),24 µM (inactive),26.9 µM (inactive),26.5 µM (inactive),20.5 µM (inactive),15.8 µM (inactive),25.8 µM (inactive),16.8 µM (inactive),21 µM (inactive),20.3 µM (inactive),23.2 µM (inactive),,
COc1cc2c(cc1C)NC(=O)/C2=C/c1cccnc1,14.6 µM (inactive),26.1 µM (inactive),15.3 µM (inactive),11.9 µM (inactive),14 µM (inactive),9.86 µM (inactive),11.7 µM (inactive),,16 µM (inactive),8.32 µM (inactive),,12.5 µM (inactive),17.9 µM (inactive),18.3 µM (inactive),5.31 µM (inactive),,22.6 µM (inactive),4.04 µM (inactive),11.7 µM (inactive)
CNC(=S)/C(C#N)=C(\N)N1CCN(C)CC1,> 100 µM (inactive),,> 100 µM (inactive),> 100 µM (inactive),> 100 µM (inactive),> 100 µM (inactive),> 100 µM (inactive),> 100 µM (inactive),> 100 µM (inactive),> 100 µM (inactive),> 100 µM (inactive),> 100 µM (inactive),> 100 µM (inactive),> 100 µM (inactive),> 100 µM (inactive),> 100 µM (inactive),> 100 µM (inactive),> 100 µM (inactive),> 100 µM (inactive)
C#CCCOC(=O)c1ccccc1OC(C)=O,> 100 µM (inactive),> 100 µM (inactive),> 100 µM (inactive),> 100 µM (inactive),> 100 µM (inactive),> 100 µM (inactive),> 100 µM (inactive),> 100 µM (inactive),> 100 µM (inactive),> 100 µM (inactive),> 100 µM (inactive),> 100 µM (inactive),> 100 µM (inactive),> 100 µM (inactive),> 100 µM (inactive),> 100 µM (inactive),> 100 µM (inactive),,70.3 µM (inactive)
Fc1ccc(C2NC(=S)NC3=C2CCOc2c3ccc3ccccc23)cc1 (stereo not given),> 100 µM (inactive),24.7 µM (inactive),> 100 µM (inactive),58.7 µM (inactive),27.7 µM (inactive),24.4 µM (inactive),55.1 µM (inactive),94.8 µM (inactive),33 µM (inactive),21.8 µM (inactive),,4.85 µM (inactive),50.8 µM (inactive),51.9 µM (inactive),3.39 µM (inactive),47.1 µM (inactive),58.1 µM (inactive),19 µM (inactive),64.9 µM (inactive)
O=C(O)c1c2c(c(O)c3c1CN(C1CCCCC1)CO3)OCN(C1CCCCC1)C2,45.1 µM (inactive),> 100 µM (inactive),> 100 µM (inactive),> 100 µM (inactive),> 100 µM (inactive),> 100 µM (inactive),> 100 µM (inactive),27.2 µM (inactive),68.4 µM (inactive),> 100 µM (inactive),,39.3 µM (inactive),> 100 µM (inactive),47.1 µM (inactive),31.3 µM (inactive),74.5 µM (inactive),> 100 µM (inactive),,83.2 µM (inactive)
O=C(CCCn1ccnc1[N+](=O)[O-])NCCn1ccnc1[N+](=O)[O-],> 100 µM (inactive),> 100 µM (inactive),,> 100 µM (inactive),> 100 µM (inactive),> 100 µM (inactive),> 100 µM (inactive),> 100 µM (inactive),> 100 µM (inactive),> 100 µM (inactive),> 100 µM (inactive),> 100 µM (inactive),> 100 µM (inactive),> 100 µM (inactive),> 100 µM (inactive),> 100 µM (inactive),> 100 µM (inactive),> 100 µM (inactive),> 100 µM (inactive)
O=C(c1cc(Cl)cc(Cl)c1)N(C(=S)OC12CC3CC(CC(C3)C1)C2)c1ccccc1,41.7 µM (inactive),46.8 µM (inactive),29 µM (inactive),33.2 µM (inactive),22.7 µM (inactive),36.1 µM (inactive),45.6 µM (inactive),36.5 µM (inactive),32.8 µM (inactive),40.3 µM (inactive),35.5 µM (inactive),28.1 µM (inactive),35.2 µM (inactive),21.8 µM (inactive),,,50.2 µM (inactive),24.4 µM (inactive),42.7 µM (inactive)
Cc1c(O)c(=O)ccn1CCc1ccc(O)cc1,31.3 µM (inactive),22 µM (inactive),24.3 µM (inactive),13.9 µM (inactive),17.3 µM (inactive),35.7 µM (inactive),15.6 µM (inactive),,6.32 µM (inactive),41.3 µM (inactive),,35.7 µM (inactive),25.9 µM (inactive),20.4 µM (inactive),32.7 µM (inactive),,> 100 µM (inactive),33.5 µM (inactive),22.1 µM (inactive)
O=C(O)c1nc2ccc(C(F)(F)F)cc2nc1NCc1ccc(Cl)c(Cl)c1,16.3 µM (inactive),18.5 µM (inactive),15.7 µM (inactive),15.4 µM (inactive),17.8 µM (inactive),17.7 µM (inactive),12.6 µM (inactive),15.5 µM (inactive),15.9 µM (inactive),16.3 µM (inactive),17.3 µM (inactive),16.2 µM (inactive),15.3 µM (inactive),15.8 µM (inactive),16.9 µM (inactive),13.9 µM (inactive),17.5 µM (inactive),,14.8 µM (inactive)
C/C(=N\NC(=[Se])N1CCN(c2ccccn2)CC1)c1ccccn1,0.01 µM (active),0.0933 µM (active),0.508 µM (active),2.37 µM (inactive),0.102 µM (active),3.06 µM (inactive),1.14 µM (inactive),0.222 µM (active),0.243 µM (active),0.598 µM (active),0.912 µM (active),0.01 µM (active),0.01 µM (active),,0.0448 µM (active),0.01 µM (active),4.15 µM (inactive),0.0432 µM (active),0.0728 µM (active)
Cc1cccc2[nH]c3c(c(O)cc4[nH]c5cccc(C)c5c(=O)c43)c(=O)c12,6.11 µM (inactive),4.33 µM (inactive),,5.83 µM (inactive),4.47 µM (inactive),3 µM (inactive),> 10 µM (inactive),4.97 µM (inactive),2.99 µM (inactive),6.87 µM (inactive),5.16 µM (inactive),3.65 µM (inactive),4.06 µM (inactive),6.53 µM (inactive),4.02 µM (inactive),5.74 µM (inactive),3.63 µM (inactive),3.33 µM (inactive),> 10 µM (inactive)
c1cc(CSP234N5CCN2CCN3CCN4CC5)cc(CSP234N5CCN2CCN3CCN4CC5)c1,18.6 µM (inactive),32.9 µM (inactive),21.5 µM (inactive),33 µM (inactive),18.6 µM (inactive),41.2 µM (inactive),27.9 µM (inactive),58.6 µM (inactive),> 100 µM (inactive),19.5 µM (inactive),,> 100 µM (inactive),25.3 µM (inactive),63.2 µM (inactive),< 0.01 µM (active),21.5 µM (inactive),19.2 µM (inactive),3.56 µM (inactive),28.6 µM (inactive)
Cc1cc(C)c(C[C@H]2COC(=O)[C@]2(O)Cc2c(C)cc(C)cc2C)c(C)c1,23.6 µM (inactive),12.9 µM (inactive),14.2 µM (inactive),18.2 µM (inactive),18.3 µM (inactive),21 µM (inactive),21.6 µM (inactive),19.4 µM (inactive),20.8 µM (inactive),18.3 µM (inactive),17 µM (inactive),20.7 µM (inactive),15.1 µM (inactive),12.6 µM (inactive),25.2 µM (inactive),,18.4 µM (inactive),14.7 µM (inactive),19.2 µM (inactive)
CCOC(=O)Nn1c(C)nnc1CC#N,> 100 µM (inactive),,58.9 µM (inactive),> 100 µM (inactive),> 100 µM (inactive),> 100 µM (inactive),> 100 µM (inactive),> 100 µM (inactive),> 100 µM (inactive),> 100 µM (inactive),> 100 µM (inactive),> 100 µM (inactive),> 100 µM (inactive),,> 100 µM (inactive),> 100 µM (inactive),> 100 µM (inactive),> 100 µM (inactive),> 100 µM (inactive)
CCOC(=O)C1(Cc2ccc3c(c2)CCC3)Cc2cc3c(cc2C1=O)CCC3 (stereo not given),> 91.2 µM (inactive),52 µM (inactive),,> 69.8 µM (inactive),> 57.4 µM (inactive),49.4 µM (inactive),> 100 µM (inactive),66.2 µM (inactive),> 100 µM (inactive),> 50.9 µM (inactive),> 83 µM (inactive),16.7 µM (inactive),16.1 µM (inactive),97.5 µM (inactive),9.95 µM (inactive),> 100 µM (inactive),76.7 µM (inactive),2.84 µM (inactive),> 100 µM (inactive)
